{"source": "the supplement of paper PMC10307832", "assay_in_all_cases": "relative viability (nuclei count vs DMSO), 5 days (fraction); higher = more cells survive", "key": {"A-427": {"test_system": "A-427", "in_short": "(§1)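 A single step with final 0.05% Triton X-100, 1% formaldehyde and 1 ug/ml Hoechst fixed the cells and stained nuclei 5 days after treatment. Lung cancer cell lines in 1536-well plates had been treated by pin tool the day after seeding with one drug alone or a fixed anchor-drug dose plus five library-drug doses (not always all listed) in √10 steps, and nuclei were counted on 4× images. Relative viability is the ratio of nuclei in treated wells to nuclei in vehicle wells, taken as the median of duplicate plates.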"}, "CAL-12T": {"test_system": "CAL-12T", "in_short": "as §1"}, "H3255": {"test_system": "H3255", "in_short": "as §1"}, "LCLC-97TM1": {"test_system": "LCLC-97TM1", "in_short": "as §1"}, "LK-2": {"test_system": "LK-2", "in_short": "as §1"}, "NCI-H1355": {"test_system": "NCI-H1355", "in_short": "as §1"}, "NCI-H1395": {"test_system": "NCI-H1395", "in_short": "as §1"}, "NCI-H1651": {"test_system": "NCI-H1651", "in_short": "as §1"}, "NCI-H1666": {"test_system": "NCI-H1666", "in_short": "as §1"}, "NCI-H1792": {"test_system": "NCI-H1792", "in_short": "as §1"}, "NCI-H1915": {"test_system": "NCI-H1915", "in_short": "as §1"}, "NCI-H2085": {"test_system": "NCI-H2085", "in_short": "as §1"}, "NCI-H2087": {"test_system": "NCI-H2087", "in_short": "as §1"}, "NCI-H2228": {"test_system": "NCI-H2228", "in_short": "as §1"}, "NCI-H322M": {"test_system": "NCI-H322M", "in_short": "as §1"}, "NCI-H838": {"test_system": "NCI-H838", "in_short": "as §1"}, "PC-14": {"test_system": "PC-14", "in_short": "as §1"}, "PC-3 [JPC-3]": {"test_system": "PC-3 [JPC-3]", "in_short": "as §1"}, "SK-MES-1": {"test_system": "SK-MES-1", "in_short": "as §1"}, "UMC-11": {"test_system": "UMC-11", "in_short": "as §1"}}, "data": [{"smiles": "Cc1cnc(-c2cnc(NCCNc3ccc(C#N)cn3)nc2-c2ccc(Cl)cc2Cl)[nH]1", "note": "+ CC1(C)CCC(c2ccc(Cl)cc2)=C(CN2CCN(c3ccc(C(=O)NS(=O)(=O)c4ccc(N[C@H](CCN5CCOCC5)CSc5ccccc5)c(S(=O)(=O)C(F)(F)F)c4)cc3)CC2)C1 [Navitoclax] (partner 0.5 µM)", "values": [{"measurement": "relative viability", "setting": "A-427; first compound 0.08 µM", "result": 0.939}, {"measurement": "relative viability", "setting": "A-427; first compound 0.253 µM", "result": 0.947}, {"measurement": "relative viability", "setting": "A-427; first compound 0.8 µM", "result": 0.973}, {"measurement": "relative viability", "setting": "A-427; first compound 2.53 µM", "result": 0.925}, {"measurement": "relative viability", "setting": "CAL-12T; first compound 0.08 µM", "result": 1.29}, {"measurement": "relative viability", "setting": "CAL-12T; first compound 0.253 µM", "result": 1.15}, {"measurement": "relative viability", "setting": "CAL-12T; first compound 0.8 µM", "result": 1.18}, {"measurement": "relative viability", "setting": "CAL-12T; first compound 2.53 µM", "result": 1.06}, {"measurement": "relative viability", "setting": "H3255; first compound 0.08 µM", "result": 0.413}, {"measurement": "relative viability", "setting": "H3255; first compound 0.253 µM", "result": 0.424}, {"measurement": "relative viability", "setting": "H3255; first compound 0.8 µM", "result": 0.508}, {"measurement": "relative viability", "setting": "H3255; first compound 2.53 µM", "result": 0.361}, {"measurement": "relative viability", "setting": "LCLC-97TM1; first compound 0.08 µM", "result": 0.41}, {"measurement": "relative viability", "setting": "LCLC-97TM1; first compound 0.253 µM", "result": 0.377}, {"measurement": "relative viability", "setting": "LCLC-97TM1; first compound 0.8 µM", "result": 0.42}, {"measurement": "relative viability", "setting": "LCLC-97TM1; first compound 2.53 µM", "result": 0.4}, {"measurement": "relative viability", "setting": "LK-2; first compound 0.08 µM", "result": 1.01}, {"measurement": "relative viability", "setting": "LK-2; first compound 0.253 µM", "result": 0.9}, {"measurement": "relative viability", "setting": "LK-2; first compound 0.8 µM", "result": 0.872}, {"measurement": "relative viability", "setting": "LK-2; first compound 2.53 µM", "result": 1.28}, {"measurement": "relative viability", "setting": "NCI-H1355; first compound 0.08 µM", "result": 1.03}, {"measurement": "relative viability", "setting": "NCI-H1355; first compound 0.253 µM", "result": 0.858}, {"measurement": "relative viability", "setting": "NCI-H1355; first compound 0.8 µM", "result": 0.884}, {"measurement": "relative viability", "setting": "NCI-H1355; first compound 2.53 µM", "result": 0.938}, {"measurement": "relative viability", "setting": "NCI-H1395; first compound 0.08 µM", "result": 1.25}, {"measurement": "relative viability", "setting": "NCI-H1395; first compound 0.253 µM", "result": 1.15}, {"measurement": "relative viability", "setting": "NCI-H1395; first compound 0.8 µM", "result": 1.19}, {"measurement": "relative viability", "setting": "NCI-H1395; first compound 2.53 µM", "result": 1.15}, {"measurement": "relative viability", "setting": "NCI-H1651; first compound 0.08 µM", "result": 1.09}, {"measurement": "relative viability", "setting": "NCI-H1651; first compound 0.253 µM", "result": 0.874}, {"measurement": "relative viability", "setting": "NCI-H1651; first compound 0.8 µM", "result": 1.06}, {"measurement": "relative viability", "setting": "NCI-H1651; first compound 2.53 µM", "result": 1.2}, {"measurement": "relative viability", "setting": "NCI-H1666; first compound 0.08 µM", "result": 0.921}, {"measurement": "relative viability", "setting": "NCI-H1666; first compound 0.253 µM", "result": 0.868}, {"measurement": "relative viability", "setting": "NCI-H1666; first compound 0.8 µM", "result": 0.835}, {"measurement": "relative viability", "setting": "NCI-H1666; first compound 2.53 µM", "result": 1.26}, {"measurement": "relative viability", "setting": "NCI-H1792; first compound 0.08 µM", "result": 0.624}, {"measurement": "relative viability", "setting": "NCI-H1792; first compound 0.253 µM", "result": 0.577}, {"measurement": "relative viability", "setting": "NCI-H1792; first compound 0.8 µM", "result": 0.601}, {"measurement": "relative viability", "setting": "NCI-H1792; first compound 2.53 µM", "result": 0.568}, {"measurement": "relative viability", "setting": "NCI-H1915; first compound 0.08 µM", "result": 0.85}, {"measurement": "relative viability", "setting": "NCI-H1915; first compound 0.8 µM", "result": 0.704}, {"measurement": "relative viability", "setting": "NCI-H1915; first compound 2.53 µM", "result": 0.778}, {"measurement": "relative viability", "setting": "NCI-H2085; first compound 0.08 µM", "result": 1.17}, {"measurement": "relative viability", "setting": "NCI-H2085; first compound 0.253 µM", "result": 1.15}, {"measurement": "relative viability", "setting": "NCI-H2085; first compound 0.8 µM", "result": 1.03}, {"measurement": "relative viability", "setting": "NCI-H2085; first compound 2.53 µM", "result": 1.16}, {"measurement": "relative viability", "setting": "NCI-H2087; first compound 0.08 µM", "result": 0.88}, {"measurement": "relative viability", "setting": "NCI-H2087; first compound 0.253 µM", "result": 0.966}, {"measurement": "relative viability", "setting": "NCI-H2087; first compound 0.8 µM", "result": 1.03}, {"measurement": "relative viability", "setting": "NCI-H2087; first compound 2.53 µM", "result": 0.967}, {"measurement": "relative viability", "setting": "NCI-H2228; first compound 0.08 µM", "result": 0.854}, {"measurement": "relative viability", "setting": "NCI-H2228; first compound 0.253 µM", "result": 1.14}, {"measurement": "relative viability", "setting": "NCI-H2228; first compound 0.8 µM", "result": 0.796}, {"measurement": "relative viability", "setting": "NCI-H2228; first compound 2.53 µM", "result": 0.536}, {"measurement": "relative viability", "setting": "NCI-H322M; first compound 0.08 µM", "result": 1.3}, {"measurement": "relative viability", "setting": "NCI-H322M; first compound 0.253 µM", "result": 1.25}, {"measurement": "relative viability", "setting": "NCI-H322M; first compound 0.8 µM", "result": 1.14}, {"measurement": "relative viability", "setting": "NCI-H322M; first compound 2.53 µM", "result": 1.2}, {"measurement": "relative viability", "setting": "NCI-H838; first compound 0.08 µM", "result": 1.21}, {"measurement": "relative viability", "setting": "NCI-H838; first compound 0.253 µM", "result": 1.11}, {"measurement": "relative viability", "setting": "NCI-H838; first compound 0.8 µM", "result": 1.44}, {"measurement": "relative viability", "setting": "NCI-H838; first compound 2.53 µM", "result": 1.6}, {"measurement": "relative viability", "setting": "PC-14; first compound 0.08 µM", "result": 1.1}, {"measurement": "relative viability", "setting": "PC-14; first compound 0.253 µM", "result": 0.883}, {"measurement": "relative viability", "setting": "PC-14; first compound 0.8 µM", "result": 1}, {"measurement": "relative viability", "setting": "PC-14; first compound 2.53 µM", "result": 0.895}, {"measurement": "relative viability", "setting": "PC-3 [JPC-3]; first compound 0.08 µM", "result": 0.81}, {"measurement": "relative viability", "setting": "PC-3 [JPC-3]; first compound 0.253 µM", "result": 0.71}, {"measurement": "relative viability", "setting": "PC-3 [JPC-3]; first compound 0.8 µM", "result": 0.809}, {"measurement": "relative viability", "setting": "PC-3 [JPC-3]; first compound 2.53 µM", "result": 0.729}, {"measurement": "relative viability", "setting": "SK-MES-1; first compound 0.08 µM", "result": 1.19}, {"measurement": "relative viability", "setting": "SK-MES-1; first compound 0.253 µM", "result": 1.14}, {"measurement": "relative viability", "setting": "SK-MES-1; first compound 2.53 µM", "result": 1.14}, {"measurement": "relative viability", "setting": "UMC-11; first compound 0.08 µM", "result": 0.341}, {"measurement": "relative viability", "setting": "UMC-11; first compound 0.253 µM", "result": 0.295}, {"measurement": "relative viability", "setting": "UMC-11; first compound 0.8 µM", "result": 0.304}, {"measurement": "relative viability", "setting": "UMC-11; first compound 2.53 µM", "result": 0.324}]}]}
